Assay results taken from patent publication US5760001A, “Cytokine restraining agents and methods of use in pathologies and conditions associated with altered cytokine levels” (Trega Biosciences, Inc., priority 1995, dated 1998).

Tests used:
Type in all cases: in vivo
male Sprague-Dawley rats = assay: Streptozotocin-induced diabetes; conditions: STZ 65 mg/kg iv; EX-2 150 μg/kg every 8 hr for 72 hr
Procedure: Male Sprague-Dawley rats were given 65 mg/kg of streptozotocin (STZ) intravenously through the tall vein. Rats were divided into two groups. The first group was administered EX-2, 150 μg/kg every 8 hr for 72 hr and the second group was a control. Blood samples were withdrawn under ether anesthesia every 8 hr for the first 72 hr, then every 12 hr or 24 hr until the end of the observation period. Plasma samples were assayed for glucose using a glucose assay kit (Trinder, Sigma Chemical Co.). As shown in Table VI below EX-2 effect a 72% reduction in blood glucose levels.

[1] = tested on: Male Harlan Sprague-Dawley rats; assay: Adult respiratory distress syndrome: LPS-induced PMN count in broncho-alveolar lavage fluid; conditions: 100 μg/kg IP at 0, 2 and 4 hr; intratracheal LPS 5 mg/kg; lavage at 6 hr
Procedure: These experiments were performed using a modification of the methods described by Ulich et al., Am. J. Pathol. 141:61-68 (1992) and by Wheelden et al., Lab. Animals 26:29-37 (1992), each of which is incorporated herein by reference. Male Harlan Sprague-Dawley rats were anesthetized using a mixture of 70 mg/kg ketamine and 6 mg/kg rompun injected IP. A 2-3 cm incision was made in the neck of each anesthetized rat and its trachea was exposed by blunt dissection of the surrounding soft tissue. The rats were suspended on a near vertical slab and intratracheal injections were performed by inserting into the exposed trachea, at a point 1 cm posterior to the larynx, a 25G×1/2 inch needle attached to a 1 cc syringe.
Each rat received 0.5 ml/kg of saline or 0.5 ml/kg of 10 mg/ml (5 mg/kg) LPS endotoxin via slow intratracheal administration. Immediately following administration of the LPS endotoxin, rats were injected IP with 1 ml/kg of either saline (control) or saline containing various concentrations of EX-2 (treated). The rats were maintained in the elevated position for 1-2 min to facilitate distribution of the LPS and saline into the lung. The incisions were closed and the rats were allowed to recover. […]
The total polymorphonuclear leukocytes (PMN; neutrophils) in the broncho-alveolar lavage fluid were counted in the EX-2-treated rats and compared with the number in the control rats.

adult female Balb/c mice = assay: Carageenan-induced paw swelling; conditions: 1 μg/mouse; measured at the 2 hr time point
Procedure: Carageenan-induced paw swelling was induced using a modification of the methods of Hiltz and Lipton, Peptides 11:979-982 (1990); Vinegar et al., Fed. Proc. 46:118-1.26 (1987); and Vinegar et al., J. Pharmacol. Expt. Therap. 166:96-103 (1969), each of which is incorporated herein by reference. Briefly, adult female Balb/c mice were anesthetized by IP injection of 7 mg/kg ketoamine and 0.6 mg/kg rompun. Foot pad thickness was measured using a spring loaded micrometer (Swiss Precision Instruments). Foot pad thickness was expressed in units of 1/100 inch. After baseline measurements were obtained, mice were injected into a hind foot pad with either 0.2 ml physiologic saline (control) or varying doses of EX-2 or EX-3 in 0.2 ml saline (treated). The first injection was followed immediately by injection of 0.02 ml of 0.15% κ-carageenan (Sigma Chemical Co.; St. Louis, Mo.).
Hind foot pad thickness was measured hourly for six hr, the change in thickness was determined and the percent reduction in swelling due to treatment with EX-2 was calculated.

TNF-α = assay: Reduction of LPS-induced TNF levels in mice (IP dosing); conditions: 30 μg/mouse IP before LPS 5 mg/kg IP; vs untreated control mice
Procedure: Balb/c female mice weighing approximately 20 g were placed into two groups, a control group and a treated group. Five mg/kg of LPS in 0.9% saline was administered by intraperitoneal (IP) injection into the control mice. Mice in the treated group were first injected IP with 30 μg EX-2 or 150 μg EX-3 in saline, then, one mn after EX-2 or EX-3 was administered, the mice received LPS as described for the control group.
Blood samples were collected from the orbital sinus of treated and control mice at various times up to four hr after LPS was administered. The plasma was separated by centrifugation at 3000×g for 5 min, then diluted with four volumes of 1× phosphate buffer saline (pH 7.4) containing 1% bovine serum albumin. A 100 μl sample of serum was assayed by ELISA for TNF-α (Genzyme; Cambridge Mass.).
The mean (±SEM) TNF-α level in six mice from each group was determined and the percent reduction in TNF levels was calculated.

Male Shelton rabbits = assay: Morphine-induced respiratory depression; conditions: 10 + 20 + 20 μg/kg/rabbit iv; at end of experiment (80 min)
Procedure: Male Shelton rabbits (3-4 kg) were restrained and fitted around the thorax, just behind the front limbs, with a respiration transducer (Model F-RCT; Grass Instruments; Quincy Mass.). The transducer was connected to a grass polygraph via an EKG cable. An intravenous line was established for drug administration by cannulating the marginal ear vein using a 25G butterfly needle.
Rabbit breathing was allowed to stabilize, then. morphine sulfate (2 mg/kg in 0.5 ml saline) was administered by intravenous (iv) injection and respiratory rate and depth were monitored for 10 min. A second dose of morphine was administered, then, after 10 min, EX-2 or EX-3 (10 μg/kg in 0.5 ml saline) was administered, iv, and rabbits were monitored for 20 min. Two additional doses of EX-2 or EX-3 (20 μg/kg in 1.0 ml saline) were administered at 20 min intervals, i.e., 40 min and 60 min after the first morphine injection.
Results were calculated as the percent change from baseline values and are expressed as the difference of the mean value of the treated group minus the mean value of the control group at the end of the experiment (80 min).

Ac-Nle-Gln-His-(D)Phe-Arg-(D)Trp-Gly-NH2 [EX-2]
STZ Diabetes: Blood Glucose (mg/dl), % Reduction of induced increase (male Sprague-Dawley rats): 72%
Reduction in LPS-induced PMN Count [1]: 58%
Reduction in Carageenan-induced Paw Swelling (adult female Balb/c mice): 45%
Reduction in TNF levels (TNF-α): 50%
Reduction in Morphine-induced Respiratory Depression (Male Shelton rabbits): 50%
